PMC9270327 (Communications Biology, 2022)
pIC50, pKi: −log10 of the molar value. Where two headings read alike, the source gives them in different places.

Columns and labels:
TMPRSS2 [1] = biological target: T1, TMPRSS2 (Homo sapiens, UniProt O15393); type: biochemical; design: purchased Creative BioMart (New York, USA) or LSBio (Seattle, USA)
Description: Recombinant human TMPRSS2 was purchased from Creative BioMart (New York, USA) or LSBio (Seattle, USA), factor Xa was obtained from Bio-Techne GmbH (Wiesbaden, Germany). Recombinant human thrombin and matriptase protein were purchased from R&D Systems (Minneapolis, MN, USA).

[2] = tested on: SARS-CoV-2 Wuhan-Hu-1, Caco-2 cells; type: cell-based; conditions: for SARS-CoV-2 infection, Mean (0 nM = 100): Fig. 6a, Wuhan-Hu-1
TMPRSS2 [3] = biological target: T1, TMPRSS2
Description: Negative ctrl: no inhibitor, positive ctrl: inhibitor in assay buffer. d Inhibitory constants Ki as determined from (a–c). Shown are the means ± SD of n = 1 experiment performed in triplicates. No inh. no inhibition.
The activity of the compounds against the recombinant human enzymes was determined in enzyme inhibition assays. […] The measurements were performed on a Tecan infinite® M1000 and the fluorescence intensity was measured by exciting the AMC fluorophore at 380 nm wavelength and recording emission at 460 nm wavelength. […] Fluorescence intensities and absorption were measured every 2 min for 2 h or as endpoint after 2 h. […] To determine the IC50 values, the concentration-response data were plotted with the program GraphPad prism version 8.4.2 (San Diego, California) and a nonlinear regression fit with the equation [Inhibitor] vs. normalized response was applied. The inhibitory constant Ki was calculated from the IC50 values using the Cheng–Prusoff equation (Ki = IC50/[S]/KM) for competitive reversible inhibitors[66].
The stability of the inhibitors was measured according to a modified procedure from ref. [67]. […] At indicated timepoints, 100 µL samples were taken and mixed with 200 µL of ethanol to precipitate proteins. […] The supernatant was aspirated and analyzed using analytical HPLC. The residual inhibitory constants Ki after incubation was assessed by mixing serial dilutions of the inhibitor with recombinant TMPRSS2 as described above.

[4] = tested on: SARS-CoV-2 Beta (B.1.351), Caco-2 cells; type: cell-based; conditions: for SARS-CoV-2 infection, Mean (0 nM = 100): Fig. 6d, VOC Beta
[5] = tested on: lentiviral pseudoparticles carrying SARS-CoV-2 Wuhan-Hu-1 spike, Caco-2 cells; type: cell-based

T1 sequence (O15393 whole entry): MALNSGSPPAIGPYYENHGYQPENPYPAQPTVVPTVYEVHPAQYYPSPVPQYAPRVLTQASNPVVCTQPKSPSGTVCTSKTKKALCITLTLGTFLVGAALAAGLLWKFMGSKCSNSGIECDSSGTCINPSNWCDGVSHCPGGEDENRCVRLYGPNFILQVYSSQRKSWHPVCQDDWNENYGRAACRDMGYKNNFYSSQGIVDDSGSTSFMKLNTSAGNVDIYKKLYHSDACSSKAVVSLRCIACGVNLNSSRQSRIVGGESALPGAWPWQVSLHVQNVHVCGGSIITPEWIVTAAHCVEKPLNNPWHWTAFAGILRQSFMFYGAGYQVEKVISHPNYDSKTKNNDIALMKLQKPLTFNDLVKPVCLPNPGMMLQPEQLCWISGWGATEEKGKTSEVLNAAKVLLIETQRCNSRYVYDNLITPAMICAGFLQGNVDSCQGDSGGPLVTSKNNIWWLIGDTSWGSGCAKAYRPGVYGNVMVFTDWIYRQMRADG

## ace-Arg-Pro-Arg-kbt [Compound 2]
TMPRSS2 [1]; 30 min preincubation, substrate Boc-Gln-Ala-Arg-AMC, Ki from IC50 by Cheng–Prusoff
  pKi: 8.42
TMPRSS2 [1]; ratio of Ki values
  fold more active than FOY-251 against isolated TMPRSS2: 2–3 fold
[2]; compound 32 nM
  SARS-CoV-2 infection, Mean (0 nM = 100): 97.173
[2]; compound 160 nM
  SARS-CoV-2 infection, Mean (0 nM = 100): 99.3408
[2]; compound 800 nM
  SARS-CoV-2 infection, Mean (0 nM = 100): 95.9056
[2]; compound 4000 nM
  SARS-CoV-2 infection, Mean (0 nM = 100): 58.4381
[2]; compound 20000 nM
  SARS-CoV-2 infection, Mean (0 nM = 100): 1.12
[2]; compound 100000 nM
  SARS-CoV-2 infection, Mean (0 nM = 100): -2.857
[2]; read-out: IC50 SARS-CoV-2 Wuhan-Hu-1
  pIC50: 5.34
[2]; read-out: IC50 SARS-CoV-2 Wuhan-Hu-1 (text)
  pIC50: 5.34
TMPRSS2 [3]; incubation in human serum during the course of 10 days
  increase in Ki values against TMPRSS2: 1.4–1.8 fold
TMPRSS2 [3]; inhibitor 0.0167 nM, 0 min in serum
  TMPRSS2 activity, Mean (0 nM = 100): 106.1220
TMPRSS2 [3]; inhibitor 0.0167 nM, 30 min in serum
  TMPRSS2 activity, Mean (0 nM = 100): 99.5878
TMPRSS2 [3]; inhibitor 0.0167 nM, 60 min in serum
  TMPRSS2 activity, Mean (0 nM = 100): 97.9753
TMPRSS2 [3]; inhibitor 0.0167 nM, 120 min in serum
  TMPRSS2 activity, Mean (0 nM = 100): 103.1067
TMPRSS2 [3]; inhibitor 0.0167 nM, 24 h in serum
  TMPRSS2 activity, Mean (0 nM = 100): 102.6336
TMPRSS2 [3]; inhibitor 0.0167 nM, 10 d in serum
  TMPRSS2 activity, Mean (0 nM = 100): 99.7199
TMPRSS2 [3]; inhibitor 0.0167 nM, positive ctrl
  TMPRSS2 activity, Mean (0 nM = 100): 99.3394
TMPRSS2 [3]; inhibitor 0.167 nM, 0 min in serum
  TMPRSS2 activity, Mean (0 nM = 100): 105.3800
TMPRSS2 [3]; inhibitor 0.167 nM, 30 min in serum
  TMPRSS2 activity, Mean (0 nM = 100): 98.0548
TMPRSS2 [3]; inhibitor 0.167 nM, 60 min in serum
  TMPRSS2 activity, Mean (0 nM = 100): 98.4409
TMPRSS2 [3]; inhibitor 0.167 nM, 120 min in serum
  TMPRSS2 activity, Mean (0 nM = 100): 101.9976
TMPRSS2 [3]; inhibitor 0.167 nM, 24 h in serum
  TMPRSS2 activity, Mean (0 nM = 100): 99.8791
TMPRSS2 [3]; inhibitor 0.167 nM, 10 d in serum
  TMPRSS2 activity, Mean (0 nM = 100): 99.7654
TMPRSS2 [3]; inhibitor 0.167 nM, positive ctrl
  TMPRSS2 activity, Mean (0 nM = 100): 97.2281
TMPRSS2 [3]; inhibitor 1.665 nM, 0 min in serum
  TMPRSS2 activity, Mean (0 nM = 100): 108.2341
TMPRSS2 [3]; inhibitor 1.665 nM, 30 min in serum
  TMPRSS2 activity, Mean (0 nM = 100): 98.1707
TMPRSS2 [3]; inhibitor 1.665 nM, 60 min in serum
  TMPRSS2 activity, Mean (0 nM = 100): 94.8463
TMPRSS2 [3]; inhibitor 1.665 nM, 120 min in serum
  TMPRSS2 activity, Mean (0 nM = 100): 98.7901
TMPRSS2 [3]; inhibitor 1.665 nM, 24 h in serum
  TMPRSS2 activity, Mean (0 nM = 100): 99.7583
TMPRSS2 [3]; inhibitor 1.665 nM, 10 d in serum
  TMPRSS2 activity, Mean (0 nM = 100): 103.5823
TMPRSS2 [3]; inhibitor 1.665 nM, positive ctrl
  TMPRSS2 activity, Mean (0 nM = 100): 91.5051
TMPRSS2 [3]; inhibitor 16.65 nM, 0 min in serum
  TMPRSS2 activity, Mean (0 nM = 100): 98.1805
TMPRSS2 [3]; inhibitor 16.65 nM, 30 min in serum
  TMPRSS2 activity, Mean (0 nM = 100): 91.6522
TMPRSS2 [3]; inhibitor 16.65 nM, 60 min in serum
  TMPRSS2 activity, Mean (0 nM = 100): 87.0886
TMPRSS2 [3]; inhibitor 16.65 nM, 120 min in serum
  TMPRSS2 activity, Mean (0 nM = 100): 89.1234
TMPRSS2 [3]; inhibitor 16.65 nM, 24 h in serum
  TMPRSS2 activity, Mean (0 nM = 100): 89.0776
TMPRSS2 [3]; inhibitor 16.65 nM, 10 d in serum
  TMPRSS2 activity, Mean (0 nM = 100): 93.1155
TMPRSS2 [3]; inhibitor 16.65 nM, positive ctrl
  TMPRSS2 activity, Mean (0 nM = 100): 59.7913
TMPRSS2 [3]; inhibitor 166.5 nM, 0 min in serum
  TMPRSS2 activity, Mean (0 nM = 100): 41.7125
TMPRSS2 [3]; inhibitor 166.5 nM, 30 min in serum
  TMPRSS2 activity, Mean (0 nM = 100): 36.7343
TMPRSS2 [3]; inhibitor 166.5 nM, 60 min in serum
  TMPRSS2 activity, Mean (0 nM = 100): 32.5087
TMPRSS2 [3]; inhibitor 166.5 nM, 120 min in serum
  TMPRSS2 activity, Mean (0 nM = 100): 34.3878
TMPRSS2 [3]; inhibitor 166.5 nM, 24 h in serum
  TMPRSS2 activity, Mean (0 nM = 100): 36.8130
TMPRSS2 [3]; inhibitor 166.5 nM, 10 d in serum
  TMPRSS2 activity, Mean (0 nM = 100): 52.5195
TMPRSS2 [3]; inhibitor 166.5 nM, positive ctrl
  TMPRSS2 activity, Mean (0 nM = 100): 21.7311
TMPRSS2 [3]; inhibitor 1665 nM, 0 min in serum
  TMPRSS2 activity, Mean (0 nM = 100): 8.0842
TMPRSS2 [3]; inhibitor 1665 nM, 30 min in serum
  TMPRSS2 activity, Mean (0 nM = 100): 8.9275
TMPRSS2 [3]; inhibitor 1665 nM, 60 min in serum
  TMPRSS2 activity, Mean (0 nM = 100): 5.1862
TMPRSS2 [3]; inhibitor 1665 nM, 120 min in serum
  TMPRSS2 activity, Mean (0 nM = 100): 6.5663
TMPRSS2 [3]; inhibitor 1665 nM, 24 h in serum
  TMPRSS2 activity, Mean (0 nM = 100): 7.0802
TMPRSS2 [3]; inhibitor 1665 nM, 10 d in serum
  TMPRSS2 activity, Mean (0 nM = 100): 12.0706
TMPRSS2 [3]; inhibitor 1665 nM, positive ctrl
  TMPRSS2 activity, Mean (0 nM = 100): 5.8217
[4]; compound 32 nM
  SARS-CoV-2 infection, Mean (0 nM = 100): 90.9628
[4]; compound 160 nM
  SARS-CoV-2 infection, Mean (0 nM = 100): 88.9778
[4]; compound 800 nM
  SARS-CoV-2 infection, Mean (0 nM = 100): 79.0008
[4]; compound 4000 nM
  SARS-CoV-2 infection, Mean (0 nM = 100): 83.4908
[4]; compound 20000 nM
  SARS-CoV-2 infection, Mean (0 nM = 100): 3.338
[4]; compound 100000 nM
  SARS-CoV-2 infection, Mean (0 nM = 100): -2.162
[4]; read-out: IC50 SARS-CoV-2 Beta
  pIC50: 5.16
[5]
  SARS-CoV-2 spike driven entry, Mean (0 nM = 100): 93.4665
[5]; Caco-2 cells, luciferase 2 days post transduction, read-out: IC50 pseudotyped lentivirus Wuhan-Hu-1
  pIC50: 5.79
[5]; Fig. 5a, compound 160 nM, […]
  SARS-CoV-2 spike driven entry, Mean (0 nM = 100): 93.5815
[5]; Fig. 5a, compound 800 nM, […]
  SARS-CoV-2 spike driven entry, Mean (0 nM = 100): 73.183
[5]; Fig. 5a, compound 4000 nM, […]
  SARS-CoV-2 spike driven entry, Mean (0 nM = 100): 22.027
[5]; Fig. 5a, compound 20000 nM, […]
  SARS-CoV-2 spike driven entry, Mean (0 nM = 100): 3.879
[5]; Fig. 5a, compound 100000 nM, […]
  SARS-CoV-2 spike driven entry, Mean (0 nM = 100): 2.5725
